Data published in PMC7156458, “Synthetic biology based construction of biological activity-related library of fungal decalin-containing diterpenoid pyrones” (Nature Communications, 2020).

Target: Aβ42 (Homo sapiens, UniProt P05067)
Assay: Th-T (thioflavin-T) assay of Aβ42 aggregation
Format: biochemical
Conditions: for Th-T assay plate reading, mean of three wells (Supplementary Fig. 47): source data, Ab alone and No Ab as controls

Sequence of Aβ42 (P05067 672-713): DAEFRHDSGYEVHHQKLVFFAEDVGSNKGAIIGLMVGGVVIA

## C=C1CCC2C(C)(CC(=O)C=C(C)C)C(O)CCC2(C)C1Cc1c(OC)oc(CO)c(C)c1=O (centres unmarked) [Compound 19]
Aβ42 aggregation time course, reading M117
  Th-T fluorescence, mean of three wells: 3.6075
Aβ42 aggregation time course, reading M118
  Th-T fluorescence, mean of three wells: 3.626
Aβ42 aggregation time course, reading M119
  Th-T fluorescence, mean of three wells: 3.587
Aβ42 aggregation time course, reading M120
  Th-T fluorescence, mean of three wells: 3.625
Aβ42 aggregation time course, reading M121
  Th-T fluorescence, mean of three wells: 3.6213
Aβ42 aggregation time course, reading M122
  Th-T fluorescence, mean of three wells: 3.6222
Aβ42 aggregation time course, reading M123
  Th-T fluorescence, mean of three wells: 3.606
Aβ42 aggregation time course, reading M124
  Th-T fluorescence, mean of three wells: 3.5846
Aβ42 aggregation time course, reading M125
  Th-T fluorescence, mean of three wells: 3.61
Aβ42 aggregation time course, reading M126
  Th-T fluorescence, mean of three wells: 3.596
Aβ42 aggregation time course, reading M127
  Th-T fluorescence, mean of three wells: 3.587
Aβ42 aggregation time course, reading M128
  Th-T fluorescence, mean of three wells: 3.613
Aβ42 aggregation time course, reading M129
  Th-T fluorescence, mean of three wells: 3.627
Aβ42 aggregation time course, reading M130
  Th-T fluorescence, mean of three wells: 3.59
Aβ42 aggregation time course, reading M131
  Th-T fluorescence, mean of three wells: 3.596
Aβ42 aggregation time course, reading M132
  Th-T fluorescence, mean of three wells: 3.652
Aβ42 aggregation time course, reading M133
  Th-T fluorescence, mean of three wells: 3.618
Aβ42 aggregation time course, reading M134
  Th-T fluorescence, mean of three wells: 3.586
Aβ42 aggregation time course, reading M135
  Th-T fluorescence, mean of three wells: 3.587
Aβ42 aggregation time course, reading M136
  Th-T fluorescence, mean of three wells: 3.617
Supplementary Fig. 47, reading M137
  Th-T fluorescence, mean of three wells: 3.599
Supplementary Fig. 47, reading M138
  Th-T fluorescence, mean of three wells: 3.596
Supplementary Fig. 47, reading M139
  Th-T fluorescence, mean of three wells: 3.59
Supplementary Fig. 47, reading M140
  Th-T fluorescence, mean of three wells: 3.5958
Supplementary Fig. 47, reading M141
  Th-T fluorescence, mean of three wells: 3.577
Supplementary Fig. 47, reading M142
  Th-T fluorescence, mean of three wells: 3.567
Supplementary Fig. 47, reading M143
  Th-T fluorescence, mean of three wells: 3.559
Supplementary Fig. 47, reading M144
  Th-T fluorescence, mean of three wells: 3.573
Supplementary Fig. 47, reading M145
  Th-T fluorescence, mean of three wells: 3.546
Supplementary Fig. 47 source data, measurement M37 of time course
  Th-T fluorescence, mean of three wells: 3.411
Supplementary Fig. 47 source data, measurement M38 of time course
  Th-T fluorescence, mean of three wells: 3.42
Supplementary Fig. 47 source data, measurement M39 of time course
  Th-T fluorescence, mean of three wells: 3.449
Supplementary Fig. 47 source data, measurement M40 of time course
  Th-T fluorescence, mean of three wells: 3.484
Supplementary Fig. 47 source data, measurement M41 of time course
  Th-T fluorescence, mean of three wells: 3.495
Supplementary Fig. 47 source data, measurement M42 of time course
  Th-T fluorescence, mean of three wells: 3.511
Supplementary Fig. 47 source data, measurement M43 of time course
  Th-T fluorescence, mean of three wells: 3.5042
Supplementary Fig. 47 source data, measurement M44 of time course
  Th-T fluorescence, mean of three wells: 3.529
Supplementary Fig. 47 source data, measurement M45 of time course
  Th-T fluorescence, mean of three wells: 3.546
Supplementary Fig. 47 source data, measurement M46 of time course
  Th-T fluorescence, mean of three wells: 3.545
Supplementary Fig. 47 source data, measurement M47 of time course
  Th-T fluorescence, mean of three wells: 3.542
Supplementary Fig. 47 source data, measurement M48 of time course
  Th-T fluorescence, mean of three wells: 3.567
Supplementary Fig. 47 source data, measurement M49 of time course
  Th-T fluorescence, mean of three wells: 3.564
Supplementary Fig. 47 source data, measurement M50 of time course
  Th-T fluorescence, mean of three wells: 3.566
Supplementary Fig. 47 source data, measurement M51 of time course
  Th-T fluorescence, mean of three wells: 3.621
Supplementary Fig. 47 source data, measurement M52 of time course
  Th-T fluorescence, mean of three wells: 3.57
Supplementary Fig. 47 source data, measurement M53 of time course
  Th-T fluorescence, mean of three wells: 3.596
Supplementary Fig. 47 source data, measurement M54 of time course
  Th-T fluorescence, mean of three wells: 3.5732
Supplementary Fig. 47 source data, measurement M55 of time course
  Th-T fluorescence, mean of three wells: 3.592
Supplementary Fig. 47 source data, measurement M56 of time course
  Th-T fluorescence, mean of three wells: 3.662
Measurement M1
  Th-T assay plate reading, mean of three wells (Supplementary Fig. 47): 0.2658
Measurement M2
  Th-T assay plate reading, mean of three wells (Supplementary Fig. 47): 0.2823
Measurement M3
  Th-T assay plate reading, mean of three wells (Supplementary Fig. 47): 0.3173
Measurement M4
  Th-T assay plate reading, mean of three wells (Supplementary Fig. 47): 0.3889
Measurement M5
  Th-T assay plate reading, mean of three wells (Supplementary Fig. 47): 0.4637
Measurement M6
  Th-T assay plate reading, mean of three wells (Supplementary Fig. 47): 0.5676
Measurement M7
  Th-T assay plate reading, mean of three wells (Supplementary Fig. 47): 0.5832
Measurement M8
  Th-T assay plate reading, mean of three wells (Supplementary Fig. 47): 0.6497
Measurement M9
  Th-T assay plate reading, mean of three wells (Supplementary Fig. 47): 0.6755
Measurement M10
  Th-T assay plate reading, mean of three wells (Supplementary Fig. 47): 0.7219
Measurement M11
  Th-T assay plate reading, mean of three wells (Supplementary Fig. 47): 0.7495
Measurement M12
  Th-T assay plate reading, mean of three wells (Supplementary Fig. 47): 0.7862
Measurement M13
  Th-T assay plate reading, mean of three wells (Supplementary Fig. 47): 0.8322
Measurement M14
  Th-T assay plate reading, mean of three wells (Supplementary Fig. 47): 0.8734
Measurement M15
  Th-T assay plate reading, mean of three wells (Supplementary Fig. 47): 0.9399
Measurement M16
  Th-T assay plate reading, mean of three wells (Supplementary Fig. 47): 1.015
Reading M17, Supplementary Fig. 47 source data
  Th-T fluorescence, mean of three wells: 1.1695
Reading M18, Supplementary Fig. 47 source data
  Th-T fluorescence, mean of three wells: 1.449
Reading M19, Supplementary Fig. 47 source data
  Th-T fluorescence, mean of three wells: 1.7884
Reading M20, Supplementary Fig. 47 source data
  Th-T fluorescence, mean of three wells: 2.128
Reading M21, Supplementary Fig. 47 source data
  Th-T fluorescence, mean of three wells: 2.459
Reading M22, Supplementary Fig. 47 source data
  Th-T fluorescence, mean of three wells: 2.644
Reading M23, Supplementary Fig. 47 source data
  Th-T fluorescence, mean of three wells: 2.778
Reading M24, Supplementary Fig. 47 source data
  Th-T fluorescence, mean of three wells: 2.868
Reading M25, Supplementary Fig. 47 source data
  Th-T fluorescence, mean of three wells: 2.94
Reading M26, Supplementary Fig. 47 source data
  Th-T fluorescence, mean of three wells: 3.016
Reading M27, Supplementary Fig. 47 source data
  Th-T fluorescence, mean of three wells: 3.079
Reading M28, Supplementary Fig. 47 source data
  Th-T fluorescence, mean of three wells: 3.14
Reading M29, Supplementary Fig. 47 source data
  Th-T fluorescence, mean of three wells: 3.171
Reading M30, Supplementary Fig. 47 source data
  Th-T fluorescence, mean of three wells: 3.2173
Reading M31, Supplementary Fig. 47 source data
  Th-T fluorescence, mean of three wells: 3.256
Reading M32, Supplementary Fig. 47 source data
  Th-T fluorescence, mean of three wells: 3.313
Reading M33, Supplementary Fig. 47 source data
  Th-T fluorescence, mean of three wells: 3.3097
Reading M34, Supplementary Fig. 47 source data
  Th-T fluorescence, mean of three wells: 3.333
Reading M35, Supplementary Fig. 47 source data
  Th-T fluorescence, mean of three wells: 3.364
Reading M36, Supplementary Fig. 47 source data
  Th-T fluorescence, mean of three wells: 3.374
Time course, reading M57
  Th-T fluorescence, mean of three wells: 3.606
Time course, reading M58
  Th-T fluorescence, mean of three wells: 3.638
Time course, reading M59
  Th-T fluorescence, mean of three wells: 3.598
Time course, reading M60
  Th-T fluorescence, mean of three wells: 3.6035
Time course, reading M61
  Th-T fluorescence, mean of three wells: 3.616
Time course, reading M62
  Th-T fluorescence, mean of three wells: 3.642
Time course, reading M63
  Th-T fluorescence, mean of three wells: 3.645
Time course, reading M64
  Th-T fluorescence, mean of three wells: 3.635
Time course, reading M65
  Th-T fluorescence, mean of three wells: 3.622
Time course, reading M66
  Th-T fluorescence, mean of three wells: 3.629
Time course, reading M67
  Th-T fluorescence, mean of three wells: 3.626
time-course reading M97, Supplementary Fig. 47 source data
  Th-T fluorescence, mean of three wells: 3.5997
time-course reading M98, Supplementary Fig. 47 source data
  Th-T fluorescence, mean of three wells: 3.623
time-course reading M99, Supplementary Fig. 47 source data
  Th-T fluorescence, mean of three wells: 3.625
time-course reading M100, Supplementary Fig. 47 source data
  Th-T fluorescence, mean of three wells: 3.601
time-course reading M101, Supplementary Fig. 47 source data
  Th-T fluorescence, mean of three wells: 3.5892
time-course reading M102, Supplementary Fig. 47 source data
  Th-T fluorescence, mean of three wells: 3.633
time-course reading M103, Supplementary Fig. 47 source data
  Th-T fluorescence, mean of three wells: 3.645
time-course reading M104, Supplementary Fig. 47 source data
  Th-T fluorescence, mean of three wells: 3.661
time-course reading M105, Supplementary Fig. 47 source data
  Th-T fluorescence, mean of three wells: 3.626
time-course reading M106, Supplementary Fig. 47 source data
  Th-T fluorescence, mean of three wells: 3.655
time-course reading M107, Supplementary Fig. 47 source data
  Th-T fluorescence, mean of three wells: 3.608
time-course reading M108, Supplementary Fig. 47 source data
  Th-T fluorescence, mean of three wells: 3.642
time-course reading M109, Supplementary Fig. 47 source data
  Th-T fluorescence, mean of three wells: 3.6107
time-course reading M110, Supplementary Fig. 47 source data
  Th-T fluorescence, mean of three wells: 3.642
time-course reading M111, Supplementary Fig. 47 source data
  Th-T fluorescence, mean of three wells: 3.621
time-course reading M112, Supplementary Fig. 47 source data
  Th-T fluorescence, mean of three wells: 3.604
time-course reading M113, Supplementary Fig. 47 source data
  Th-T fluorescence, mean of three wells: 3.595
time-course reading M114, Supplementary Fig. 47 source data
  Th-T fluorescence, mean of three wells: 3.63
time-course reading M115, Supplementary Fig. 47 source data
  Th-T fluorescence, mean of three wells: 3.6287
time-course reading M116, Supplementary Fig. 47 source data
  Th-T fluorescence, mean of three wells: 3.617
